Experimental data: patent publication US20250049798A1, “WEE1 PROTEIN KINASE DEGRADATION AGENT AND USE THEREOF” (HANGZHOU GLUBIO PHARMACEUTICAL CO. LTD., priority 2021, published 2025)
Read-outs that look alike come from different tables or passages of the source.

How the values were obtained:
NCI-H1048 cells = assay: NCI-H1048 cell proliferation assay (CTG assay); assay type: cell-based; conditions: Homo sapiens, 120 hours, read-out: CTG cellular assay_H1048: IC50
Procedure: NCI-H1048 Cell Proliferation Assay (CTG Assay) The following is an example of an assay that can be used to determine the anti-proliferative activity of Wee1 PROTACs in a small cell lung cancer cell line, NCI-H1048 (ATCC Cat #CRL-5853). This cell line was cultured in RPMI-1640 medium supplemented with 10% FBS. About 1,200 NCI-H1048 cells in 50 μL of culture medium were seeded into a 384-well plate (Cat #3764, Corning), pre-spotted with compounds using the Echo 650 liquid handler (Beckman). The dose-response-curve (DRC) typically has 10-points with a highest concentration at 10 μM, and half-log diluted to as low as 0.316 nM, plus a DMSO control. Assay plates were incubated at 37° C. with 5% CO2 for 120 hours. After that, 20 μL of the CellTiter-Glo (CTG) Luminescent Cell Viability Assay Reagent (Cat #G7573, Promega) was added to each well and incubated at room temperature for 30 minutes. Luminescence was then measured with Pherastar microplate reader (BMG Labtech). All percentage of cell growth inhibition curves were processed using Collaborative Drug Discovery Vault.
Cell viability reads in compound-treated wells were normalized to that of DMSO control and expressed as Percent of Control (PoC, y). A four Parameter Logistic Model was used to determine the compound's EC50 and DC50, using the following equation: […]

HiBiT tagged Wee1 = HiBiT tagged Wee1 (Homo sapiens, UniProt P30291); assay: Wee1 protein degradation assay (HiBiT assay); assay type: cell-based; conditions: for Dmax: maximum percentage of Wee1 degradation, read-out: HiBiT Wee1: Dmax
HiBiT tagged Wee1, sequence (P30291 whole entry): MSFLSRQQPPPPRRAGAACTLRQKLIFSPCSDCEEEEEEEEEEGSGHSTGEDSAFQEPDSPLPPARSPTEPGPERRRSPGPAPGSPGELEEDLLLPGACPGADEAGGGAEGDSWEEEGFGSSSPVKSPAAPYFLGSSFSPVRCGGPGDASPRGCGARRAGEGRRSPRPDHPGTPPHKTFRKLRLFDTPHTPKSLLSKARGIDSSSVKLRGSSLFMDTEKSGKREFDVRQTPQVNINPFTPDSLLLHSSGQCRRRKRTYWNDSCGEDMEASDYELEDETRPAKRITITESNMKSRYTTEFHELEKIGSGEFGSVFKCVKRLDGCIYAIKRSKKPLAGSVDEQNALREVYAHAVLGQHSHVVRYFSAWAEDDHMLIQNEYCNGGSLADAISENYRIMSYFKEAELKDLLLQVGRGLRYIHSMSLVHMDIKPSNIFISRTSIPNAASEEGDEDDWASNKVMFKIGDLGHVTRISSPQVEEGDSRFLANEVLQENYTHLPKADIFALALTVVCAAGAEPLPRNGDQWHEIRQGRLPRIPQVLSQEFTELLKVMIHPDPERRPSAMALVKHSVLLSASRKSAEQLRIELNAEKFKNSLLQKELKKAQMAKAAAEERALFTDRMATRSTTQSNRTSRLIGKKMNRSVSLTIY

[1] = engineered HT-1080 cells, 20 hours

Row | IC50 (NCI-H1048 cells) | DC50 (HiBiT tagged Wee1; [1]) | Dmax (HiBiT tagged Wee1; [1]) | SMILES | Dmax (HiBiT tagged Wee1; HT-1080, […])
1 | 0.025 to 0.1 µM | < 0.1 µM | 50 to 75% | C=CCn1c(=O)c2cnc(Nc3ccc(N4CCN(CC5CCN(c6ccc7c(c6)C(=O)N(C6CCC(=O)NC6=O)C7=O)CC5)CC4)cc3)nc2n1-c1cccc(C(C)(C)O)n1 (stereo not drawn) [Compound 8] | –
2 | > 0.1 µM | > 1 µM | < 50% | Cc1cc(Nc2ncc3c(n2)N(C)CN(c2c(Cl)cccc2Cl)C3=O)ccc1C1CCN(CC2CCN(c3ccc4c(c3)C(=O)N(C3CCC(=O)NC3=O)C4=O)CC2)CC1 (stereo not drawn) [Compound 16] | –
3 | ≤ 0.025 µM | < 0.1 µM | > 75% | C=CCn1c(=O)c2cnc(Nc3ccc(N4CCN(CC5CCN(c6ccc7c(N8CCC(=O)NC8=O)nn(C)c7c6)CC5)CC4)c(C)c3)nc2n1-c1ccc2c(n1)[C@](C)(O)CC2 [Compound 137] | –
4 | ≤ 0.025 µM | < 0.1 µM | > 75% | C=CCn1c(=O)c2cnc(Nc3ccc(N4C[C@@H](C)N(CC5CCN(c6ccc(NC7CCC(=O)NC7=O)cc6F)CC5)[C@@H](C)C4)cc3)nc2n1-c1ccc2c(n1)[C@@](O)(CC)CC2 (stereo partly drawn) [Compound 169] | –
5 | ≤ 0.025 µM | < 0.1 µM | > 75% | C=CCn1c(=O)c2cnc(Nc3ccc(N4CCN(CC5CCN(c6ccc7c(N8CCC(=O)NC8=O)nn(C)c7c6)CC5)CC4)cc3)nc2n1-c1cccc(C(C)(C)O)n1 [Compound 105] | –
6 | ≤ 0.025 µM | < 0.1 µM | > 75% | C=CCn1c(=O)c2cnc(Nc3ccc(N4CCC(CN5CCN(c6ccc7c(C8CCC(=O)NC8=O)nn(C)c7c6)CC5)CC4)cc3)nc2n1-c1cccc(C(C)(C)O)n1 (stereo not drawn) [Compound 106] | –
7 | ≤ 0.025 µM | < 0.1 µM | > 75% | C=CCn1c(=O)c2cnc(Nc3ccc(N4CCN(CC5CCN(c6ncc(NC7CCC(=O)NC7=O)cc6F)CC5)[C@H](C)C4)cc3)nc2n1-c1ccc2c(n1)[C@@](O)(CC)CC2 (stereo partly drawn) [Compound 193] | –
8 | ≤ 0.025 µM | 0.1 to 1 µM | 50 to 75% | C=CCn1c(=O)c2cnc(Nc3ccc(N4CCN(CCCCc5ccc6c(c5)n(C)c(=O)n6C5CCC(=O)NC5=O)CC4)cc3)nc2n1-c1cccc(C(C)(C)O)n1 (stereo not drawn) [Compound 47] | –
9 | 0.025 to 0.1 µM | < 0.1 µM | 50 to 75% | O=C1CCC(N2C(=O)c3ccc(N4CCC(CN5CCN(c6ccc(Nc7ncc8c(=O)n(-c9c(Cl)cccc9Cl)c9nccn9c8n7)cc6)CC5)CC4)cc3C2=O)C(=O)N1 (stereo not drawn) [Compound 3] | –
10 | ≤ 0.025 µM | < 0.1 µM | 50 to 75% | C=CCn1c(=O)c2cnc(Nc3ccc(C4CCN(CC5CCN(c6ccc(NC7CCC(=O)NC7=O)cc6F)CC5)CC4)cc3)nc2n1-c1ccc2c(n1)[C@@](O)(CC)CC2 (stereo partly drawn) [Compound 109] | –
11 | 0.025 to 0.1 µM | < 0.1 µM | > 75% | C=CCn1c(=O)c2cnc(Nc3ccc(N4CCN(CC5CCN(c6ccc(NC7CCC(=O)NC7=O)cc6F)CC5)CC4)c(F)c3)nc2n1-c1cccc(C(C)(C)O)n1 (stereo not drawn) [Compound 125] | –
12 | ≤ 0.025 µM | < 0.1 µM | > 75% | C=CCn1c(=O)c2cnc(Nc3ccc(N4CCN(CC5CCN(c6ncc(NC7CCC(=O)NC7=O)cc6Cl)CC5)CC4)cc3)nc2n1-c1ccc2c(n1)[C@@](O)(CC)CC2 (stereo partly drawn) [Compound 181] | –
13 | ≤ 0.025 µM | < 0.1 µM | 50 to 75% | C=CCn1c(=O)c2cnc(Nc3ccc(N4CCN(CC5CCN(c6ccc7c(N8CCC(=O)NC8=O)nn(C)c7c6)CC5)CC4)c(C)c3)nc2n1-c1ccc2c(n1)[C@@](O)(CC)CC2 [Compound 129] | –
14 | ≤ 0.025 µM | < 0.1 µM | > 75% | C=CCn1c(=O)c2cnc(Nc3ccc(N4CCC(CN5CCN(c6ccc(NC7CCC(=O)NC7=O)cc6F)CC5)CC4)cc3)nc2n1-c1ccc2c(n1)[C@@](C)(O)CC2 (single isomer, unassigned) [Compound 121] | –
15 | ≤ 0.025 µM | < 0.1 µM | 50 to 75% | C=CCn1c(=O)c2cnc(Nc3ccc(N4CCN(CC5CCN(c6ccc7c(C8CCC(=O)NC8=O)nn(C)c7c6)CC5)CC4)cc3)nc2n1-c1cccc(C(C)(C)O)n1 (stereo not drawn) [Compound 76] | –
16 | ≤ 0.025 µM | < 0.1 µM | > 75% | C=CCn1c(=O)c2cnc(Nc3ccc(N4CCC(N5CCC(c6ccc(NC7CCC(=O)NC7=O)cc6)CC5)CC4)cc3)nc2n1-c1cccc(C(C)(C)O)n1 (stereo not drawn) [Compound 70] | –
17 | ≤ 0.025 µM | < 0.1 µM | > 75% | C=CCn1c(=O)c2cnc(Nc3ccc(C4CCN(CN5CCN(c6ccc7c(N8CCC(=O)NC8=O)nn(C)c7c6)CC5)CC4)cc3)nc2n1-c1cccc(C(C)(C)O)n1 [Compound 89] | –

Row | IC50 (NCI-H1048 cells) | DC50 (HiBiT tagged Wee1; [1]) | Dmax (HiBiT tagged Wee1; [1]) | SMILES | Dmax (HiBiT tagged Wee1; HT-1080, […])
18 | ≤ 0.025 µM | < 0.1 µM | > 75% | C=CCn1c(=O)c2cnc(Nc3ccc(N4CCN(CC5CCN(c6ccc7c(N8CCC(=O)NC8=O)nn(C)c7c6)CC5)CC4)cc3)nc2n1-c1ccc2c(n1)[C@](C)(O)CC2 [Compound 115] | –
19 | 0.025 to 0.1 µM | < 0.1 µM | 50 to 75% | C=CCn1c(=O)c2cnc(Nc3ccc(N4CCC(CN5CCC(c6cccc7c6n(C)c(=O)n7C6CCC(=O)NC6=O)CC5)CC4)cc3)nc2n1-c1ccc2c(n1)[C@@](O)(CC)CC2 (stereo partly drawn) [Compound 54] | –
20 | ≤ 0.025 µM | < 0.1 µM | > 75% | C=CCn1c(=O)c2cnc(Nc3ccc(N4CCN(C5CC6(C5)CN(c5ccc(NC7CCC(=O)NC7=O)cc5F)C6)CC4)cc3)nc2n1-c1ccc2c(n1)[C@@](O)(CC)CC2 (stereo partly drawn) [Compound 168] | –
21 | 0.025 to 0.1 µM | < 0.1 µM | 50 to 75% | C=CCn1c(=O)c2cnc(Nc3ccc(C4CCN(C[C@@H]5CCN(c6ccc7c(c6)C(=O)N(C6CCC(=O)NC6=O)C7=O)C5)CC4)cc3)nc2n1-c1cccc(C(C)(C)O)n1 (stereo partly drawn) [Compound 37] | –
22 | ≤ 0.025 µM | < 0.1 µM | > 75% | C=CCn1c(=O)c2cnc(Nc3ccc(N4CCC(N5CC6(CN(c7ccc(NC8CCC(=O)NC8=O)cc7F)C6)C5)CC4)cc3)nc2n1-c1cccc(C(C)(C)O)n1 (stereo not drawn) [Compound 123] | –
23 | ≤ 0.025 µM | < 0.1 µM | > 75% | C=CCn1c(=O)c2cnc(Nc3ccc(N4CC5(CC(N6CCN(c7ccc(NC8CCC(=O)NC8=O)cc7F)CC6)C5)C4)cc3)nc2n1-c1ccc2c(n1)[C@@](O)(CC)CC2 (stereo partly drawn) [Compound 173] | –
24 | 0.025 to 0.1 µM | < 0.1 µM | > 75% | CC(C)n1c(=O)c2cnc(Nc3ccc(N4CCN(CC5CCN(c6ccc(NC7CCC(=O)NC7=O)cc6F)CC5)CC4)cc3)nc2n1-c1cccc(C(C)(C)F)n1 (stereo not drawn) [Compound 199] | –
25 | 0.025 to 0.1 µM | < 0.1 µM | 50 to 75% | O=C1CCC(N2C(=O)c3ccc(N4CCC(CN5CCC(c6ccc(Nc7ncc8c(=O)n(-c9c(Cl)cccc9Cl)c9nccn9c8n7)cc6)CC5)CC4)cc3C2=O)C(=O)N1 (stereo not drawn) [Compound 14] | –
26 | ≤ 0.025 µM | < 0.1 µM | > 75% | C=CCn1c(=O)c2cnc(Nc3ccc(N4CCN(CC5CCN(c6cc7c(cc6F)c(N6CCC(=O)NC6=O)nn7C)CC5)CC4)nc3)nc2n1-c1ccc2c(n1)[C@](C)(O)CC2 [Compound 197] | –
27 | ≤ 0.025 µM | < 0.1 µM | > 75% | C=CCn1c(=O)c2cnc(Nc3ccc(N4CCC(N5CCN(c6ccc(NC7CCC(=O)NC7=O)cc6F)CC5)CC4)cc3)nc2n1-c1cccc(C(C)(C)O)n1 (stereo not drawn) [Compound 67] | –
28 | ≤ 0.025 µM | < 0.1 µM | > 75% | C=CCn1c(=O)c2cnc(Nc3ccc(N4CCC(CN(C)C5CCN(c6ccc(NC7CCC(=O)NC7=O)cc6F)CC5)CC4)cc3)nc2n1-c1cccc(C(C)(C)O)n1 (stereo not drawn) [Compound 91] | –
29 | ≤ 0.025 µM | < 0.1 µM | 50 to 75% | C=CCn1c(=O)c2cnc(Nc3ccc(C4CCN(CC5CCN(c6ccc7c(C8CCC(=O)NC8=O)nn(C)c7c6)CC5)CC4)cc3)nc2n1-c1cccc(C(C)(C)O)n1 (stereo not drawn) [Compound 111] | –
30 | ≤ 0.025 µM | < 0.1 µM | > 75% | C=CCn1c(=O)c2cnc(Nc3ccc(C4CCN(CC5CCN(c6ccc7c(N8CCC(=O)NC8=O)nn(C)c7c6)CC5)CC4)cc3)nc2n1-c1cccc(C(C)(C)O)n1 [Compound 104] | –
31 | ≤ 0.025 µM | < 0.1 µM | > 75% | C=CCn1c(=O)c2cnc(Nc3ccc(N4CCN(CC5CCN(c6ccc(NC7CCC(=O)NC7=O)cc6F)CC5)[C@H](C)C4)cc3)nc2n1-c1ccc2c(n1)[C@@](O)(CC)CC2 (stereo partly drawn) [Compound 163] | –
32 | ≤ 0.025 µM | < 0.1 µM | > 75% | C[C@]1(O)CC/C=C\Cn2c(=O)c3cnc(Nc4ccc(N5CCN(CC6CCN(c7ccc(NC8CCC(=O)NC8=O)cc7F)CC6)CC5)cc4)nc3n2-c2cccc1n2 (single isomer, unassigned) [Compound 141] | –
33 | ≤ 0.025 µM | < 0.1 µM | > 75% | C=CCn1c(=O)c2cnc(Nc3ccc(N4CC5(CCN(C6CN(c7ccc(NC8CCC(=O)NC8=O)cc7F)C6)CC5)C4)cc3)nc2n1-c1ccc2c(n1)[C@@](O)(CC)CC2 (stereo partly drawn) [Compound 179] | –

Row | SMILES | IC50 (NCI-H1048 cells) | DC50 (HiBiT tagged Wee1; [1]) | Dmax (HiBiT tagged Wee1; [1]) | Dmax (HiBiT tagged Wee1; HT-1080, […])
34 | CN1CN(c2c(Cl)cccc2Cl)C(=O)c2cnc(Nc3ccc(N4CCN(CCCNc5cccc6c5C(=O)N(C5CCC(=O)NC5=O)C6=O)CC4)cc3)nc21 (stereo not drawn) [Compound 17] | > 0.1 µM | > 1 µM | – | < 50%
